In EP4818193A1, “COMPOSITION AND METHOD FOR TREATING NEONATAL HYPOXIC-ISCHEMIC ENCEPHALOPATHY” (Suzhou Glenkol Pharma Technology Co., Ltd., priority 2023, dated 2025):

Tests used:
[1] = test system: cerebral cortical neural cells; experiment: MTT assay for cell viability after oxygen-glucose deprivation; assay type: cell-based, neonatal rats; parameters: dose or concentration left out as unconfirmed; settings: added at initiation of oxygen-glucose deprivation; 24 hours after injury; compared to untreated oxygen-glucose deprivation group, p < 0.05
[2] = test system: cerebral cortical neural cells; experiment: Lactate dehydrogenase (LDH) cytotoxicity assay after oxygen-glucose deprivation; assay type: cell-based, neonatal rats; parameters: dose or concentration left out as unconfirmed; settings: added at initiation of oxygen-glucose deprivation; 24 hours after injury; compared to untreated oxygen-glucose deprivation group, p < 0.05

With Davunetide [NaP] as the substance, how does the MTT formation levels [1] read?
The MTT formation levels was “significantly increased”.

And the LDH release levels [2]?
The LDH release levels was “significantly reduced”.
